The data set can be described thus: solubility in water at room temperature.

With `OCc1c(F)c(F)c(CO)c(F)c1F` [2,3,5,6-tetrafluorobenzenedimethanol], the solubility in water entry is “about 25 g/L”.

These data come from patent US6909023B2, “Production method for benzenedimethanol compound” (Showa Denko K.K., priority 2000, dated 2005).
